# Experimental data as given in patent US20060134119A1, “Drugs containing galectin 9” (priority 2003, published 2006).
# Assays:
# BALL-1 = test: Apoptosis analysis by PI method in BALL-1 cells; format: cell-based
# Protocol: (§1) MOLT-4 (T cell), Jurkat (T cell), BALL-1 (B cell), THP-1 (acute monocytic leukemia derived cell), and HL60 (acute promyelotic leukemia derived cell) cells were obtained from American Type Culture Collection (ATCC). All the cell lines were maintained in an RPMI-1640 medium (Sigma, St. Louis, US) supplemented with 10% FCS in 5% Co2 at 37° C. Lactose (30 mM) was added to the culture medium to inhibit Gal-9 activity. The same concentration of sucrose was used as a control.
# (§2) Cells that underwent apoptosis induction were centrifuged at 4° C. for 5 min at 1,000 rpm, and the cell pellet was resuspended in PBS (300 μL), and adjusted to a final concentration of 70% by gradually adding 100% cold ethanol (700 μL) to the suspended cells with vortexing. […] Stained cells were analyzed by flow cytometry (Sandstrom, K. et al., J Immunol Methods, 240: 55 (2000) and Zhang L. et al., Cancer Lett, 142: 129 (1999)) after removing aggregated cells through a nylon mesh and increasing the cell volume with PBS. […]
# (§3) Apoptotic activity was measured by the PI method. […] Subsequently, incubation with PI leads to a reduction in the fluorescence intensity of apoptotic cells. Apoptosis was examined by the percentage of the cells wherein their fluorescence intensity was reduced. […]
# THP-1 = test: Apoptosis analysis by PI method in THP-1 cells; format: cell-based
# Protocol: as §1, §2, §3
# HL-60 = test: Apoptosis analysis by PI method in HL60 cells; format: cell-based
# Protocol: as §1, §2, §3
# MCF-7 = test: Apoptosis analysis by PI method in MCF-7 cells; format: cell-based; details: incubation with galectin-9 at least 48 hr or more
# Protocol: (§4) Apoptotic activity was measured by the PI method. When cells are incubated with galectin-9, washed, then subjected to alcohol-fixation, and fragmented DNAs flow out of the cell. Subsequently, incubation with PI leads to a reduction in the fluorescence intensity of apoptotic cells. Apoptosis was examined by the percentage of the cells wherein their fluorescence intensity was reduced. […] This induction was at the same level as H2O2 (hydrogen peroxide solution) that was used as a positive control. In addition, the same results were obtained by another method for examining apoptosis, TUNEL assay.
# KATO-III = test: Apoptosis analysis by PI method in KATO-III cells; format: cell-based; details: incubation with galectin-9 at least 48 hr or more
# Protocol: as §4
# Daudi = test: Apoptosis analysis by PI method in Daudi cells; format: cell-based; details: incubation with galectin-9 at least 48 hr or more
# Protocol: as §4
# [1] = system: malignant melanoma cell line MM-RU; test: Apoptosis analysis by PI method in malignant melanoma cell line MM-RU; format: cell-based, human; details: incubated with galectin-9 for 72 hr, FIG. 10
# Protocol: as §4
# MOLT-4 cells [2] = test: Ca2+ influx, Fluo-3 assay by flow cytometry; format: cell-based, human; details: Fluo-3 assay, FIG. 8
# Protocol: Cells (approx. 10^6 to 10^7 cells/mL) in the culture medium (10% FCS, RPMI-1640 containing 10 mM HEPES, pH 7.2) were incubated with fluo-3 AM (final concentration 10 μM, Dojindo, Kumamoto, Japan), an intracellular calcium indicator, at 37° C. for 30 min (Sharp, B. M. et al., Proc. Natl. Acad. Sci. USA, 93: 8294 (1996)). Then the cells were washed and resuspended in the culture medium (final concentration, approx. 2×10^5 cells/mL per sample). Intracellular calcium level was measured by flow cytometry. The resting cells were stimulated at 1 min after their fluorescence intensities were measured.
# Next, sequential measurement was restarted until different stimuli were applied. In lactose inhibition assay, cells were stimulated in the presence of 30 mM lactose. Sucrose (30 mM) was used as a control (Sano, H. et al., J. Imnunol., 165: 2156 (2000)). A23187 (calcium ionophore, final concentration 5 ng/mL, Wako, Osaka, Japan) was used as a positive control.
# MOLT-4 cells [3] = test: Effects of Gal-9 on DEX-, anti-Fas Ab- or etoposide-induced apoptosis; format: cell-based, human; details: FIG. 9
# From the text: The following agents were purchased from suppliers below: DEX (BioVision, CA, US), anti-Fas Ab (clone CH-11, MBL), TNFα (Genzyme, Cambridge, Mass., US), C2 ceramide (SIGMA), and etoposide (Biovision).
# Effects of Gal-9 on the apoptosis induced by other stimuli (e.g. DEX, anti-Fas Ab, and etoposide) were examined.
substance,measurement,setting,value
Galectin-9: Recombinant human galectin-9 expressed in E. coli and purified on lactose-agarose,"apoptosis induction, Gal9 (+)","BALL-1; BALL-1, incubation with galectin-9 at least 48 hr or more",26.0
same,apoptosis induction,"BALL-1; rGal-9 1 μM, 24 hr, FIG. 3",induced
same,"apoptosis induction, Gal9 (+)","THP-1; THP-1, incubation with galectin-9 at least 48 hr or more",61.2
same,apoptosis induction,"THP-1; rGal-9 1 μM, 24 hr, FIG. 3",induced
same,"apoptosis induction, Gal9 (+)","HL-60; HL-60, incubation with galectin-9 at least 48 hr or more",64.6
same,apoptosis induction,"HL-60; rGal-9 1 μM, 24 hr, FIG. 3",induced
same,"apoptosis induction, Gal9 (+)",MCF-7,14.1
same,"apoptosis induction, Gal9 (+)",KATO-III,30.5
same,"apoptosis induction, Gal9 (+)",Daudi,58.5
same,apoptosis induction,[1],strongly induced
same,calcium influx,MOLT-4 cells [2]; A23187 final concentration 5 ng/mL,increased calcium influx
same,time within which calcium influx increased after addition,MOLT-4 cells [2],10 to 20 s
same,effect of rGal-9 on anti-Fas Ab-induced apoptosis,MOLT-4 cells [3],additional effects
same,effect of rGal-9 on etoposide-induced apoptosis,MOLT-4 cells [3],additional effects
same,"percentage (%) of apoptotic cells, rGal-9 with DEX",MOLT-4 cells [3],scarcely little or no difference
